According to US8952024B2, “Herbicidal pyrimidone derivatives” (E I du Pont de Nemours and Company, priority 2009, dated 2015):
Read-outs that look alike come from different tables or passages of the source.

How the values were obtained:
Format in all cases: in vivo
[1] = tested on: johnsongrass (Sorghum halepense); assay: Test B pre-/postemergence plant response
In short: (§1)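 Steps: sow seed in loam–sand soil and spray preemergence, or grow plants in peat-based medium to 1–4 leaves (2–18 cm) and spray postemergence; formulation is non-phytotoxic solvent plus surfactant; hold in greenhouse 13–15 days; score visually vs controls, 0 = no effect, 100 = complete control.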

[2] = tested on: woolly cupgrass (Eriochloa villosa); assay: Test B pre-/postemergence plant response; conditions: for pest or weed control at 31 g/ha: 31 g ai/ha, scale 0 to 100 (0 no effect, 100 complete control); for pest or weed control at 62 g/ha: 62 g ai/ha
In short: as §1

[3] = tested on: goosegrass (Eleusine indica); assay: Test B pre-/postemergence plant response; conditions: for pest or weed control at 62 g/ha: 62 g ai/ha
In short: as §1

[4] = tested on: wheat (Triticum aestivum); assay: Test B pre-/postemergence plant response
In short: as §1

[5] = tested on: morningglory (Ipomoea coccinea); assay: Test B pre-/postemergence plant response
In short: as §1

[6] = tested on: giant foxtail (Setaria faberii); assay: Test B pre-/postemergence plant response; conditions: for pest or weed control at 31 g/ha: 31 g ai/ha, scale 0 to 100 (0 no effect, 100 complete control); for pest or weed control at 62 g/ha: 62 g ai/ha
In short: as §1

[7] = tested on: pigweed (Amaranthus retroflexus); assay: Test A pre-/postemergence plant response; conditions: Amaranthus retroflexus, 240 h; for pest or weed control at 125 g/ha: 125 g ai/ha; for pest or weed control at 500 g/ha: 500 g ai/ha
In short: (§2)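 Injury was scored visually after roughly ten days against untreated controls, 0 = no effect, 100 = complete control. Test chemicals in a surfactant-containing non-phytotoxic solvent were sprayed either onto soil preemergence or onto one- to two-leaf, 2–10 cm plants postemergence.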

[8] = tested on: morningglory (Ipomoea spp.); assay: Test A pre-/postemergence plant response; conditions: Ipomoea, 240 h; for pest or weed control at 125 g/ha: 125 g ai/ha; for pest or weed control at 500 g/ha: 500 g ai/ha
In short: as §2

[9] = tested on: barnyardgrass (Echinochloa crus-galli); assay: Test B flooded paddy test; conditions: Echinochloa crus-galli, 360 h
In short: (§3)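 Seedlings reaching 2 leaves are flooded 3 cm deep; test material is delivered to that water, which stays at the same depth. Plants remain in a greenhouse 13–15 days and are then scored by eye versus controls from 0 to 100.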

rice (Oryza sativa) = assay: Test B flooded paddy test; conditions: Oryza sativa
In short: as §3

[10] = tested on: ducksalad (Heteranthera limosa); assay: Test B flooded paddy test; conditions: Heteranthera limosa, 360 h
In short: as §3

[11] = tested on: umbrella sedge (Cyperus difformis); assay: Test B flooded paddy test; conditions: Cyperus difformis, 360 h
In short: as §3

[12] = Preemergence, 125 g ai/ha, 0 to 100 scale
[13] = Postemergence, 250 g ai/ha, scale 0 to 100

Cc1c(F)cccc1-n1c(-c2ccccc2)ncc(C(=O)C2=C(O)CCCC2=O)c1=O [Compound 47, 3-(3-fluoro-2-methylphenyl)-5-[(2-hydroxy-6-oxo-1-cyclohexen-1-yl)carbonyl]-2-phenyl-4(3H)-pyrimidinone]
Johnsongrass plant response rating [1, 12]: 80 | pest or weed control at 125 g/ha ([1]; Sorghum halepense, post-emergence, Postemergence, 125 g ai/ha, visual rating after 13 to 15 days, scale 0 (no effect) to 100 (complete control)): 98% | pest or weed control at 250 g/ha ([1]; Sorghum halepense, pre-emergence, 250 g ai/ha, Preemergence, 0 to 100 scale, read-out: Plant response rating, Johnsongrass): 100% | pest or weed control at 31 g/ha ([1]; Sorghum halepense, pre-emergence, Preemergence, 31 g ai/ha, scale 0 to 100 (0 no effect, 100 complete control), read-out: Plant response rating, Johnsongrass): 65% | pest or weed control at 62 g/ha ([1]; Sorghum halepense, pre-emergence, Preemergence, 62 g ai/ha, scale 0 to 100, 0 no effect, 100 complete control, read-out: Plant response rating, Johnsongrass): 75% | pest or weed control at 31 g/ha ([2]; Eriochloa villosa, post-emergence, Postemergence, read-out: Plant response rating, Cupgrass, Woolly): 85% | pest or weed control at 62 g/ha ([2]; Eriochloa villosa, post-emergence, Postemergence, scale 0 (no effect) to 100 (complete control), 13 to 15 days, read-out: Plant response rating, Cupgrass, Woolly): 90% | pest or weed control at 125 g/ha ([2]; Eriochloa villosa, post-emergence, Postemergence, 125 g ai/ha, visual rating after 13 to 15 days, scale 0 (no effect) to 100 (complete control)): 90% | pest or weed control at 250 g/ha ([2]; Eriochloa villosa, pre-emergence, 250 g ai/ha, Preemergence, 0 to 100 scale, read-out: Plant response rating, Cupgrass, Woolly): 90% | pest or weed control at 31 g/ha ([2]; Eriochloa villosa, pre-emergence, Preemergence, read-out: Plant response rating, Cupgrass, Woolly): 0% | pest or weed control at 62 g/ha ([2]; Eriochloa villosa, pre-emergence, Preemergence, scale 0 to 100, 0 no effect, 100 complete control, read-out: Plant response rating, Cupgrass, Woolly): 45% | Cupgrass, Woolly plant response rating [2, 13]: 100 | Cupgrass, Woolly plant response rating [2, 12]: 75 | pest or weed control at 62 g/ha ([3]; Eleusine indica, post-emergence, Postemergence, scale 0 (no effect) to 100 (complete control), 13 to 15 days, read-out: Plant response rating, Goosegrass): 95% | pest or weed control at 125 g/ha ([3]; Eleusine indica, post-emergence, Postemergence, 125 g ai/ha, visual rating after 13 to 15 days, scale 0 (no effect) to 100 (complete control)): 95% | pest or weed control at 250 g/ha ([3]; Eleusine indica, pre-emergence, 250 g ai/ha, Preemergence, 0 to 100 scale, read-out: Plant response rating, Goosegrass): 100% | pest or weed control at 31 g/ha ([3]; Eleusine indica, pre-emergence, Preemergence, 31 g ai/ha, scale 0 to 100 (0 no effect, 100 complete control), read-out: Plant response rating, Goosegrass): 95% | pest or weed control at 62 g/ha ([3]; Eleusine indica, pre-emergence, Preemergence, scale 0 to 100, 0 no effect, 100 complete control, read-out: Plant response rating, Goosegrass): 100% | Goosegrass plant response rating [3, 13]: 98 | Goosegrass plant response rating [3, 12]: 100 | Wheat plant response rating [4, 12]: 0 | plant injury at 62 g/ha ([4]; Triticum aestivum, post-emergence, Postemergence, 62 g ai/ha, scale 0 (no effect) to 100 (complete control), 13 to 15 days, read-out: Plant response rating, Wheat): 0% | plant injury at 125 g/ha ([4]; Triticum aestivum, post-emergence, Postemergence, 125 g ai/ha, visual rating after 13 to 15 days, scale 0 (no effect) to 100 (complete control)): 5% | plant injury at 250 g/ha ([4]; Triticum aestivum, pre-emergence, 250 g ai/ha, Preemergence, 0 to 100 scale, read-out: Plant response rating, Wheat): 0% | plant injury at 31 g/ha ([4]; Triticum aestivum, pre-emergence, Preemergence, 31 g ai/ha, scale 0 to 100 (0 no effect, 100 complete control), read-out: Plant response rating, Wheat): 0% | pest or weed control at 62 g/ha ([5]; Ipomoea, post-emergence, Postemergence, 62 g ai/ha, scale 0 (no effect) to 100 (complete control), 13 to 15 days, read-out: Plant response rating, Morningglory): 80% | pest or weed control at 125 g/ha ([5]; Ipomoea, post-emergence, Postemergence, 125 g ai/ha, visual rating after 13 to 15 days, scale 0 (no effect) to 100 (complete control)): 90% | pest or weed control at 250 g/ha ([5]; Ipomoea, pre-emergence, 250 g ai/ha, Preemergence, 0 to 100 scale, read-out: Plant response rating, Morningglory): 55% | pest or weed control at 31 g/ha ([5]; Ipomoea, pre-emergence, Preemergence, 31 g ai/ha, scale 0 to 100 (0 no effect, 100 complete control), read-out: Plant response rating, Morningglory): 0% | Morningglory plant response rating [5, 12]: 0 | Foxtail, Giant plant response rating [6, 13]: 98 | Foxtail, Giant plant response rating [6, 12]: 85 | pest or weed control at 31 g/ha ([6]; Setaria faberi, post-emergence, Postemergence, read-out: Plant response rating, Foxtail, Giant): 90% | pest or weed control at 62 g/ha ([6]; Setaria faberi, post-emergence, Postemergence, scale 0 (no effect) to 100 (complete control), 13 to 15 days, read-out: Plant response rating, Foxtail, Giant): 98% | pest or weed control at 125 g/ha ([6]; Setaria faberi, post-emergence, Postemergence, 125 g ai/ha, visual rating after 13 to 15 days, scale 0 (no effect) to 100 (complete control)): 98% | pest or weed control at 250 g/ha ([6]; Setaria faberi, pre-emergence, 250 g ai/ha, Preemergence, 0 to 100 scale, read-out: Plant response rating, Foxtail, Giant): 100% | pest or weed control at 31 g/ha ([6]; Setaria faberi, pre-emergence, Preemergence, read-out: Plant response rating, Foxtail, Giant): 45% | pest or weed control at 62 g/ha ([6]; Setaria faberi, pre-emergence, Preemergence, scale 0 to 100, 0 no effect, 100 complete control, read-out: Plant response rating, Foxtail, Giant): 70% | pest or weed control at 125 g/ha ([7]; post-emergence, Postemergence, visual injury, 0 to 100 scale (0 no effect, 100 complete control), approx. ten days, read-out: Pigweed plant response rating): 90% | pest or weed control at 500 g/ha ([7]; post-emergence, Postemergence, 0 to 100 scale, 0 = no effect, 100 = complete control, approx. ten days, read-out: Plant response rating, Pigweed): 100% | pest or weed control at 125 g/ha ([7]; pre-emergence, Preemergence, 0 to 100 scale, 0 = no effect, 100 = complete control, read-out: Plant response rating, Pigweed): 80% | pest or weed control at 500 g/ha ([7]; pre-emergence, Preemergence, visual injury, 0 to 100 scale (0 no effect, 100 complete control), approx. ten days, read-out: Plant response rating, Pigweed): 100% | pest or weed control at 125 g/ha ([8]; post-emergence, Postemergence, visual injury, 0 to 100 scale (0 no effect, 100 complete control), approx. ten days, read-out: Morningglory plant response rating): 80% | pest or weed control at 500 g/ha ([8]; post-emergence, Postemergence, 0 to 100 scale, 0 = no effect, 100 = complete control, approx. ten days, read-out: Plant response rating, Morningglory): 100% | pest or weed control at 125 g/ha ([8]; pre-emergence, Preemergence, 0 to 100 scale, 0 = no effect, 100 = complete control, read-out: Plant response rating, Morningglory): 60% | pest or weed control at 500 g/ha ([8]; pre-emergence, Preemergence, visual injury, 0 to 100 scale (0 no effect, 100 complete control), approx. ten days, read-out: Plant response rating, Morningglory): 90% | pest or weed control at 250 g/ha ([9]; 250 g ai/ha, flooded paddy test, visual rating on 0 to 100 scale (0 no effect, 100 complete control) after 13 to 15 days, read-out: Plant response rating, Flood, Barnyardgrass): 20% | pest or weed control at 62 g/ha ([9]; Flood (flooded paddy test), 62 g ai/ha, scale of 0 to 100 where 0 is no effect and 100 is complete control, 13 to 15 days, read-out: Plant response rating, Barnyardgrass): 0% | plant injury at 250 g/ha (rice (Oryza sativa); 250 g ai/ha, flooded paddy test, visual rating on 0 to 100 scale (0 no effect, 100 complete control) after 13 to 15 days, read-out: Plant response rating, Flood, Rice): 25% | plant injury at 62 g/ha (rice (Oryza sativa); Flood (flooded paddy test), 62 g ai/ha, scale of 0 to 100 where 0 is no effect and 100 is complete control, 13 to 15 days, read-out: Plant response rating, Rice): 15% | pest or weed control at 250 g/ha ([10]; 250 g ai/ha, flooded paddy test, visual rating on 0 to 100 scale (0 no effect, 100 complete control) after 13 to 15 days, read-out: Plant response rating, Flood, Ducksalad): 95% | pest or weed control at 62 g/ha ([10]; Flood (flooded paddy test), 62 g ai/ha, scale of 0 to 100 where 0 is no effect and 100 is complete control, 13 to 15 days, read-out: Plant response rating, Ducksalad): 65% | pest or weed control at 250 g/ha ([11]; 250 g ai/ha, flooded paddy test, visual rating on 0 to 100 scale (0 no effect, 100 complete control) after 13 to 15 days, read-out: Plant response rating, Flood, Sedge, Umbrella): 85% | pest or weed control at 62 g/ha ([11]; Flood (flooded paddy test), 62 g ai/ha, scale of 0 to 100 where 0 is no effect and 100 is complete control, 13 to 15 days, read-out: Plant response rating, Sedge, Umbrella): 70%
